Reference: PubChem BioAssay (NCI)
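Dose response: 5 concentrations. Exposure: 48 h. Format: 96-well plates. Endpoint: linear interpolation; highest concentration if not reached. GI50 is the concentration that inhibits growth by half. TGI: concentration producing complete growth inhibition.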

What was measured:
Test in all cases: NCI tumour cell line growth inhibition, 48 h
DU-145 prostate = tested on: DU-145 prostate
RXF 393 renal = tested on: RXF 393 renal
A549 NSCLC = tested on: A549 NSCLC
COLO 205 colon = tested on: COLO 205 colon
SF-539 CNS = tested on: SF-539 CNS
MCF7 breast = tested on: MCF7 breast
UACC-257 melanoma = tested on: UACC-257 melanoma
K-562 leukemia = tested on: K-562 leukemia
OVCAR-8 ovarian = tested on: OVCAR-8 ovarian
NCI-H460 lung = tested on: NCI-H460 lung

Row | SMILES | GI50 (DU-145 prostate) [µM] | TGI (DU-145 prostate) [µM] | GI50 (RXF 393 renal) [µM] | TGI (RXF 393 renal) [µM] | GI50 (A549 NSCLC) [µM] | TGI (A549 NSCLC) [µM] | GI50 (COLO 205 colon) [µM] | TGI (COLO 205 colon) [µM] | GI50 (SF-539 CNS) [µM] | TGI (SF-539 CNS) [µM] | GI50 (MCF7 breast) [µM] | TGI (MCF7 breast) [µM] | GI50 (UACC-257 melanoma) [µM] | TGI (UACC-257 melanoma) [µM] | GI50 (K-562 leukemia) [µM] | TGI (K-562 leukemia) [µM] | GI50 (OVCAR-8 ovarian) [µM] | TGI (OVCAR-8 ovarian) [µM] | GI50 (NCI-H460 lung) [µM] | TGI (NCI-H460 lung) [µM]
1 | COc1ccc2c(c1OC)O/C(=C\c1ncc([N+](=O)[O-])n1C)C2=O | 1.42 | 6.27 | 0.774 | 2.27 | 2.59 | 12.1 | 1.16 | 2.86 | 3.1 | 10.2 | 2.06 | > 27.8 | 0.788 | 2.67 | 2.12 | 7.99 | 0.639 | 3.66 | 0.925 | 4.83
2 | COc1cc(NC2CCCCC2O)c2nc(-c3ccc(Cl)cc3)ccc2c1 (stereo not given) | 12.7 | 58 | 2.78 | 4.58 | 6.05 | > 100 | 6.87 | 20.7 | 10.5 | 51.4 | 0.358 | 35.5 | 12.2 | > 100 | 2.82 | 18.4 | 12.2 | > 100 | 3.35 | 12.3
3 | C#C[C@]1(O)CC[C@H]2[C@@H]3CC=C4c5nc(N)sc5CC[C@]4(C)[C@H]3CC[C@@]21C | 5.19 | 20.8 | 1.81 | 3.72 | 4.15 | 24.8 | 3.66 | 15.8 | 1.58 | 3.56 | 3.54 | 10.1 | 2.36 | 6.86 | 2.63 | 74.5 | 9.12 | 56.1 | 3.78 | 16.4
4 | CC(=O)Oc1cc2cnc3c4cc(OC(C)=O)c(OC(C)=O)cc4ccc3c2cc1OC(C)=O | 2.61 | > 100 | 1.79 | 8.88 | 3.69 | > 100 | 4.3 | > 100 | 1.3 | 4.46 | 0.638 | > 100 | 2.56 | > 100 | 2.08 | > 100 | 1.97 | 31.2 | 0.569 | > 100
5 | CCn1c(-c2nonc2N)nc2cnc(Oc3cccc(NC(=O)c4ccc(N(C)C)cc4)c3)cc21 | > 21.7 | > 25 | 16.9 | > 25 | 2.12 | > 25 | > 13.5 | > 25 | 18.7 | > 25 | > 25 | > 25 | > 25 | > 25 | > 25 | > 25 | > 25 | > 25 | > 25 | > 25
6 | COc1ccc(-c2csc(Nc3cccc(-c4csc(C)n4)c3)n2)cc1 | 2.14 | > 50 | 1.87 | > 14.9 | 0.902 | 49.8 | 0.636 | > 26.1 | 1.57 | 8.27 | 0.31 | > 50 | 3.26 | 19.7 | 0.137 | 0.507 | 2.27 | > 31.2 | 0.354 | > 19.3
